Measurements: PMC10761396, “Evaluation of new alternative methods for the identification of estrogenic, androgenic and steroidogenic effects: a comparative in vitro/in silico study” (Archives of Toxicology, 2023)

How the values were obtained:
AR = target: T1, AR (Homo sapiens, UniProt P10275); assay: YAS (Yeast androgen screen) assay, agonist and antagonist mode
T1 sequence (P10275 1-920): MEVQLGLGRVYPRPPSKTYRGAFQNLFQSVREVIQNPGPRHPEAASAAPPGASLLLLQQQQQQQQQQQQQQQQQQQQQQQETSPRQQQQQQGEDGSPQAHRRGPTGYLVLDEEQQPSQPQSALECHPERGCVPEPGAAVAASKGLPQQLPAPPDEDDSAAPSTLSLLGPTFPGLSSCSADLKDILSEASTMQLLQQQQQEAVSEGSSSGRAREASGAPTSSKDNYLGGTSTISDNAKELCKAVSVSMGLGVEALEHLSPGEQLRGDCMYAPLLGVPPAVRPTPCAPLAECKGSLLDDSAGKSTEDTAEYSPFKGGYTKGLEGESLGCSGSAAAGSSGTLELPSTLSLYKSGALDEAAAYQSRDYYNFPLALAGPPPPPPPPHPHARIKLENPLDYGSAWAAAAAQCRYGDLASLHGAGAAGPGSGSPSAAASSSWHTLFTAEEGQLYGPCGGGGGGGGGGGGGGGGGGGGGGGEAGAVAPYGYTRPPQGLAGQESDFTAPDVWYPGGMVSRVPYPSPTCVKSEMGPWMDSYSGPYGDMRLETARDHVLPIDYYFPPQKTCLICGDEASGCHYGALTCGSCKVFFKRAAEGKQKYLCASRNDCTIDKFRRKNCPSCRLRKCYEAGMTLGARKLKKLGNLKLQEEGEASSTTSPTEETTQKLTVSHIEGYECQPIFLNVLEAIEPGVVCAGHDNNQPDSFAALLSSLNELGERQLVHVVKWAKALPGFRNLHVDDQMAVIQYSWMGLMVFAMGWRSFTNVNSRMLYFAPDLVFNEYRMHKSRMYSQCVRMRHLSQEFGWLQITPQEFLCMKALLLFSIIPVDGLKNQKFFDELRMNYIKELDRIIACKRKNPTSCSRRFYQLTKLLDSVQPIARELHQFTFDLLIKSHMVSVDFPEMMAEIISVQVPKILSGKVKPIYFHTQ
Method: (§1) The YES/YAS XL (Xtra Lyticase) assay kit from Xenometrix AG (Allschwil, Switzerland) was conducted according to the Supplier’s instructions.
(§2) In the YES assay, human ERα is integrated in the yeast (Saccharomyces cerevisiae) chromosome, and for the YAS assay human AR is integrated (Routledge and Sumpter 1996; Sohoni and Sumpter 1998). […] This enzyme then converts a yellow substrate to a purple metabolite, which can be measured colorimetrically.
(§3) Growing yeast cells stably transformed with either hERα (YES) or hAR (YAS) and a β-galactosidase reporter system were exposed to a range of concentrations of each test compound. […] The positive control chemicals for agonistic effects were 17-β estradiol for YES and 5α-dihydrotestosterone for YAS. […] A combination of a fixed concentration of positive control and a range of concentrations of each test chemical were tested. The cells were incubated with each treatment for 18 h at 31°C. The cells were lysed in the presence of the yellow β-galactosidase-substrate, chlorophenol red-β-D-galactopyranoside (CPRG). Yeast cell growth was assessed prior to addition of the lysis buffer by measuring the absorbance at 690 nm. The production of the red metabolite of CPRG was determined by measuring the absorbance at 570 nm. It was corrected for diffraction by cells and debris by a simultaneous measurement at 690 nm. The results were evaluated for estrogenic and androgenic agonistic and antagonistic activity, as well as for yeast growth inhibition or cytotoxicity.
(§4) An IR value ≥ IR10 in the YES or YAS agonist assay indicates an agonistic effect (IR10 is defined as the IR which is 10% of (IR max - IR solvent) above the IR solvent. An IR value ≤ IR50 in the YES or YAS antagonist assay indicates a possible antagonistic effect (IR50 is defined as 50% of (IR control - IR solvent), where the IR control is at the corresponding fixed concentration of agonist used: 3.3 × 10^-10 M 17-β estradiol and 3.3 × 10^-9 M 5α-dihydrotestosterone, respectively). […]

ERα = target: T2, ERα (Homo sapiens, UniProt P03372); assay: YES (Yeast oestrogen screen) assay, agonist and antagonist mode; conditions: YES agonist assay; duplicates in two independent experiments
T2 sequence (P03372 1-595): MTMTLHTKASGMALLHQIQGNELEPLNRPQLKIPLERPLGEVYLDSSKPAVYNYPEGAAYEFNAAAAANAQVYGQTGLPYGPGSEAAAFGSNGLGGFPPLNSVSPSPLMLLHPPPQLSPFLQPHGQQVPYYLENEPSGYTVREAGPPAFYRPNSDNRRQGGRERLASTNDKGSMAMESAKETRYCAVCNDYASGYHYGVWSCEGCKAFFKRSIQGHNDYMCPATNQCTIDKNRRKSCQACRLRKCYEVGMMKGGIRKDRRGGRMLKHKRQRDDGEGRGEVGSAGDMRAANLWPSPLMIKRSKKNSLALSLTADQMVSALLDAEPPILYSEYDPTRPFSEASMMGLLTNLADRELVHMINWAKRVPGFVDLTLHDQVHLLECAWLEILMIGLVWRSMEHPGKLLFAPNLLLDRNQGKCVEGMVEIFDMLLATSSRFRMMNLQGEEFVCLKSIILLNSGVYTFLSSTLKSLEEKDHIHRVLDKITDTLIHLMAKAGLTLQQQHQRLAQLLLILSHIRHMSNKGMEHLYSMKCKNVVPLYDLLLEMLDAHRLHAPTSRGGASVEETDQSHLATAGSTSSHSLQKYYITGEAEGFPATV
Method: as §1, §2, §3, §4

human (non-selective) ER = assay: ER radioligand ([3H]estradiol) receptor-binding assay; conditions: for inhibition of control specific binding to the ER: single-dose screening, 10 µM
Method: The chemicals were tested for their ability to bind to different targets. […] Chemicals were incubated at 10 µM with cells overexpressing ER or AR for 24 h at 4°C, after which, the binding of the radiolabeled ligand ([^3H]estradiol for ER and [^3H]methyltrienolone for AR) was measured by liquid scintillation counting. An increase or decrease higher than 50% were considered to represent significant effects. Four chemicals were tested in additional incubations at several concentrations up to the maximum soluble concentration for IC50 or EC50 determination for the associated target. Receptor binding was calculated as a % inhibition of the binding of a radioactively labeled ligand specific for each target.
Each test chemical was tested in a single assay in duplicate.

[1] = target: T3, human recombinant CYP19A1 (Homo sapiens, UniProt P11511); assay: Recombinant enzyme aromatase activity inhibition assay; format: biochemical; conditions: follow-up dose–response assay
T3 sequence (P11511 1-503): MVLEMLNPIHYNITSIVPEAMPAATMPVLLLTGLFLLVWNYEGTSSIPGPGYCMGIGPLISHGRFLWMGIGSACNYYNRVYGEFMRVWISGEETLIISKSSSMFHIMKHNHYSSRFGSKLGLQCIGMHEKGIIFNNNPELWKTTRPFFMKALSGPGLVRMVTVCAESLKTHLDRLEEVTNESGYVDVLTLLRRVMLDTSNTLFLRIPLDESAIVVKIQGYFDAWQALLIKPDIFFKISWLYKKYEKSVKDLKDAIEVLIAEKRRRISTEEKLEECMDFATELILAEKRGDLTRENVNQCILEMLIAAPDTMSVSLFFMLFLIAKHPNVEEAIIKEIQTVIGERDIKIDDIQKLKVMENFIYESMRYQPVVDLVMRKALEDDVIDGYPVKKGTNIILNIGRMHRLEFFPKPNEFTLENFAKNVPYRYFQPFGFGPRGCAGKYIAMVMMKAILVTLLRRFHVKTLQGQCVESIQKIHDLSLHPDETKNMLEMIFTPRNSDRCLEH
Method: An aromatase inhibition assay was also included in the in vitro assay panel. This enzyme – otherwise known as CYP19A1 - is responsible for converting androgens into estrogens (Blakemore and Naftolin 2016; Bulun 2014); therefore, chemicals that inhibit aromatase activity can lead to reduced estrogen production, which can affect reproductive and developmental processes (Kragie 2002; Tiboni and Ponzano 2016).
The metabolite, estradiol, was measured by time-resolved fluorescence according to the method described previously (Ji et al. 2014). Enzyme inhibition was calculated as a % inhibition of control enzyme activity.

ER = tested on: ER; design: method as in Browne, et al (2015); conditions: ref Browne, et al (2015), cited from earlier work; for ToxCast Pathway Model (AUC): as agonist where given, value above 0.1 = significant interaction

Compound	AR antagonism in the YAS assay (AR; YAS antagonist assay)	ER agonism in the YES assay (ERα)	ER binding outcome (human (non-selective) ER)	IC50 (human (non-selective) ER; follow-up dose–response assay)	Ki (human (non-selective) ER; follow-up dose–response assay)	inhibition of control specific binding to the ER (human (non-selective) ER)	aromatase inhibition outcome [1]	ToxCast Pathway Model (AUC) (ER)	ToxCast Pathway Model interaction (ER)	outcome in the YAS assay (AR; agonist and antagonist)	toxicity to yeast (decrease in the yeast cell growth) (AR; highest concentrations tested)
CCCCN(CCCC)c1ccc(C(=O)c2ccccc2C(=O)O)c(O)c1 [DBABA, 2-[4-(dibutylamino)-2-hydroxybenzoyl]benzoic acid]	inconclusive										
C[C@]12CCC(=O)C[C@@H]1CC[C@@H]1[C@@H]2CC[C@@]2(C)[C@H]1CC[C@]2(C)O [Mestanolone, mestanolone, reference compound]		positive	confirmed to bind to the ER	1600 nM	520 nM	more than 50%	lack of binding				
CC(C)(C)CC(C)(C)c1ccc(O)cc1 [4-TO, 4-tert-octylphenol]								0.393	significant interaction	negative	toxic at the highest concentrations tested
O=c1c(-c2ccc(O)cc2)coc2cc(O)ccc12 [Daidzein, daidzein]		positive				more than 50%	lack of binding	0.44	significant interaction		
